SMILES strings stand for the structures.

In one data set the target is T1, hTG1 (Homo sapiens, UniProt P22735).
T1 construct: purchased Zedira T035
T1 sequence (P22735 1-817): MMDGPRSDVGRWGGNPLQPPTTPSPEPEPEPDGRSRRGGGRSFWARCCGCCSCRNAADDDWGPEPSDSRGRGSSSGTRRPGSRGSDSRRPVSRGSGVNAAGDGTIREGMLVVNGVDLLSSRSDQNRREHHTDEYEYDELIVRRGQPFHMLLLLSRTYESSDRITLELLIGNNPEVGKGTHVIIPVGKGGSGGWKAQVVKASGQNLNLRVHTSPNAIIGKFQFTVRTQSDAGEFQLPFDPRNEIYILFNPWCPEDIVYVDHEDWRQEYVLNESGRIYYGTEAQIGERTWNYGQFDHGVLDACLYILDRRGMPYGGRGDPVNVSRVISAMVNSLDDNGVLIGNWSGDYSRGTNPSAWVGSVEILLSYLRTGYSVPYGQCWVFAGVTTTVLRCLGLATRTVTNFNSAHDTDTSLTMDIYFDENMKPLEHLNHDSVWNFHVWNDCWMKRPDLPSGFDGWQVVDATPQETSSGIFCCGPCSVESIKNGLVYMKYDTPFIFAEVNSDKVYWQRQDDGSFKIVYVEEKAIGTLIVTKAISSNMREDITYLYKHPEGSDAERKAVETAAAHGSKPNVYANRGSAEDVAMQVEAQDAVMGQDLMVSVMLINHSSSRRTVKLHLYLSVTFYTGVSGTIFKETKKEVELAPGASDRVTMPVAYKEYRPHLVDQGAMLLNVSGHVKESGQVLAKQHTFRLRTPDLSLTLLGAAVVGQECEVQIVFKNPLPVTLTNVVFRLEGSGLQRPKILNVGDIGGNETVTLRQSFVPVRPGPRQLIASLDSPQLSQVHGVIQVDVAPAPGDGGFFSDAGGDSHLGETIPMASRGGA
As to the kind of experiment: Fluorescent transamidation assay (DCC-assay), hTG1. The format is biochemical. On the procedure:
(§1) Inhibition data were determined using the fluorescent transamidation assay (dansylcadaverine incorporation into glutamine-donor substrate N,N-dimethyl casein, DCC-assay). Briefly, to 15 μL of ZED1227 solution (dissolved and serial diluted in 2% (v/v) DMSO/assay buffer), 285 μL assay buffer [47.5 mM tris(hydroxymethyl)aminomethane, 9.5 mM CaCl2, 9.5 mM glutathione, 2.4% (v/v) glycerol, 190 mM NaCl, pH 8.0] containing dansylcadaverine (15.9 μM), N,N-dimethyl casein (3.8 μM) and the indicated recombinant transglutaminase enzyme [0.95 μg/mL hTG1 (T035), 0.81 μg/mL hTG2 (T022), 0.83 μg/mL hTG6 (T021), all from Zedira] were added, mixed and the kinetic measurement started immediately. […]
(§2) Fluorescence emission was continuously monitored for 30 min at λem = 500 nm (λex = 330 nm) and 37 °C using a CLARIOstar fluorescence plate reader (BMG Labtech, Ortenberg, Germany). […] The respective IC50 (and IC90 for TG2) values were calculated by non-linear regression using the MARS software package (BMG Labtech). […]
(§3) To facilitate comparability during lead structure optimization and to roughly estimate concentrations needed at the target site, the apparent IC50 values (calculated by four-parameter non-linear fit by MARS software) for irreversible inhibitors are more instructive and are therefore reported. […]

A further data set deals with T2, hTG6 (Homo sapiens, UniProt O95932).
T2 construct: purchased Zedira T021
T2 sequence (O95932 1-706): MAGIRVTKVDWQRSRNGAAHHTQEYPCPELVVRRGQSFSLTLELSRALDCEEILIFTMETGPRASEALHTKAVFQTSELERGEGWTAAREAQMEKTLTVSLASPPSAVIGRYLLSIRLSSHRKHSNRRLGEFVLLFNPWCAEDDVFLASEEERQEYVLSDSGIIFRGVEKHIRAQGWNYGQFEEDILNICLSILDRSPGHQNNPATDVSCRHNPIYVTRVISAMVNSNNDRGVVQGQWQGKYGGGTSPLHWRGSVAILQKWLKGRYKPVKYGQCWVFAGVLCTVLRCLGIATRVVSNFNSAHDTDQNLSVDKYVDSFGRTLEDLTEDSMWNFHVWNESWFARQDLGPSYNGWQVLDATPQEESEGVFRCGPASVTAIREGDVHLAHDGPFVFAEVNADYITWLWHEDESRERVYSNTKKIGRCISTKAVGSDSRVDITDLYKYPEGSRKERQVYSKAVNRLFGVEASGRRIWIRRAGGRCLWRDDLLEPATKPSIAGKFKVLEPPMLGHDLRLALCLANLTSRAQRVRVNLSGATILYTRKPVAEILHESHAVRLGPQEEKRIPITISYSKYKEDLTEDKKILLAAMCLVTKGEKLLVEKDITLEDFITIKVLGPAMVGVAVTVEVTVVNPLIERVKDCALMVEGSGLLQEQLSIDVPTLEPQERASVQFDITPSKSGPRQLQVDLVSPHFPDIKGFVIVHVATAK
As to the kind of experiment: Fluorescent transamidation assay (DCC-assay), hTG6. It counts as biochemical. On the procedure:
as §1, §2, §3

Data set [1] in a line: Reactivity towards thiols (excess glutathione). The format is physicochemical. Conditions: 160-fold excess GSH, 25 °C, after 48 h. The protocol:
To exclude undesired reactions of ZED1227 with biological thiols, an investigation was performed with the tripeptide glutathione (GSH) as a surrogate. ZED1227 (60 μM) was incubated with a 160-fold excess of glutathione (10,000 μM) in aqueous media [containing 7% (v/v) tetrahydrofuran and 13% (v/v) methanol] at ambient temperature (25 °C). The parent compound and the GSH-adduct formed after 48 h were determined by HPLC (vide supra).

For `CCC(CC)CNC(=O)Cn1cccc(NC(=O)[C@H](CC/C=C/C(=O)OC)NC(=O)c2cncn2C)c1=O` [ZED1227, (S,E)-Methyl 7-(1-(2-(2-ethylbutylamino)-2-oxoethyl)-2-oxo-1,2-dihydropyridin-3-ylamino)-6-(1-methyl-1H-imidazole-5-carboxamido)-7-oxohept-2-enoate], the “Selectivity hTG1 versus hTG2” value on hTG1 (ratio of app. IC50 values) is 469 fold. Also, the IC50 (usually the concentration at which inhibition is half-maximal) on hTG1 (recombinant, transamidation assay, read-out: App. IC50 hTG1) was found to be 24.9 µM; on hTG6 (recombinant, transamidation assay, read-out: App. IC50 hTG6), 6.44 µM. Moreover, the “Selectivity hTG6 versus hTG2” value at hTG6 (ratio of app. IC50 values) came to 122 fold. In addition, in data set [1] (60 μM compound), the “Reactivity towards excess glutathione: parent drug compound recovery” value was 98% parent drug compound recovery (after 48 h). Besides, in data set [1], the Glutathione-adduct formed was 2%.
